In general, IC50 refers to the concentration needed to halve the response being measured. Higher therefore signals weaker potency.

In this assay the target is T1, human glycine transporter-2 (GlyT2) (Homo sapiens, UniProt Q9Y345).
T1 construct: The entire coding region of the human GlyT2 cDNA was cloned into the mammalian expression vector pCINeo; expressed in transfected cells; host or cells: Cos-7 cells (African green monkey kidney), stably transfected, vector pCINeo, G418 selection
T1 sequence (Q9Y345 1-797): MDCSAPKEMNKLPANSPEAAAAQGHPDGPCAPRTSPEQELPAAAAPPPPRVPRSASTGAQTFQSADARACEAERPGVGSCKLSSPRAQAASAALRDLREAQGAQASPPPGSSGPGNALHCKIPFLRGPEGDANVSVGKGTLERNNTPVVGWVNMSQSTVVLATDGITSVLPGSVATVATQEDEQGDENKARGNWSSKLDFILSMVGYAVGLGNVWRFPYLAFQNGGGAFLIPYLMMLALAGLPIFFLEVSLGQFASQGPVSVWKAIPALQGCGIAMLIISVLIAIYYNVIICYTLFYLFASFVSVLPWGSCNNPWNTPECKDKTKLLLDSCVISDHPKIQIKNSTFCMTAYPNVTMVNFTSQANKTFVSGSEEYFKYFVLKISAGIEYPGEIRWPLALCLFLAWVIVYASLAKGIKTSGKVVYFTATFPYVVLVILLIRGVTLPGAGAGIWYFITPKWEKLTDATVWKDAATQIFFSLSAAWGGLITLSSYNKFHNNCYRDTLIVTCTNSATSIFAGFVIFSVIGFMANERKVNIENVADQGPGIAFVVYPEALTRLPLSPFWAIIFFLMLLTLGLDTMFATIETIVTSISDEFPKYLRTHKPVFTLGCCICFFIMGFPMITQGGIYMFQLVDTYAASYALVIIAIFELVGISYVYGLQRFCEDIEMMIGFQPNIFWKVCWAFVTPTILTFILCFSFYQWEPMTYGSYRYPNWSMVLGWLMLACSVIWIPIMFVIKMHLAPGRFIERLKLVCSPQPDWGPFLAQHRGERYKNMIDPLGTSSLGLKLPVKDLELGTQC
The assay is described as follows: GlyT2 inhibitory activity: inhibition of [14C]-glycine uptake in COS-7 cells transfected with human GlyT2. It is filed as cell-based. The settings on record: Cos-7 cells stably transfected with human GlyT2; 20 μM 14C-glycine, 2 h at 37° C. On the procedure: GlyT2 antagonist activity of representative compounds of the invention was determined in accordance with the assay described in the Examples and by measuring the ability of compounds to inhibit the uptake of [^14C]-glycine in COS-7 cells transfected with the human glycine transporter-2 (GlyT2). The GlyT2 antagonist activities of these representative compounds are set forth hereinafter in Table 1.
Cos-7 cells (African green monkey, kidney) from American Type Culture Collection were grown in DMEM supplemented with 10% fetal bovine serum. The entire coding region of the human GlyT2 cDNA was cloned into the mammalian expression vector pCINeo, and then stably transfected into Cos-7 cells. Transfection was performed essentially as described by T. W. Lovenberg et al. (Mol. Pharmacol. 1999, 55:1101-1107). Cells are grown to 70-80% confluence, removed from the plate with trypsin, and pelleted in a clinical centrifuge. The pellet is resuspended in 400 μL complete medium and transferred to an electroporation cuvette with a 0.4 cm gap between the electrodes (Bio-Rad, 165-2088). One microgram of supercoiled GlyT2 cDNA is added to the cells, and the suspension is mixed. The voltage for the electroporation is set at 0.25 kV, and the capacitance is set at 960 μF. After electroporation, the cuvette contents are diluted to 10 mL with complete medium, and 0.5 mL, 1.0 mL, 2.0 mL and remainder (−6.5 mL) portions are plated onto four 10-cm dishes. The cells are incubated 24 h before adding 600 μg/mL G418. Colonies that survive selection are isolated and tested for GlyT2 expression.
The day before the assay, the GlyT2 expressing cells were plated into 96-well scintillating microplates (Amersham, RPNQ 0160) at a density of approximately 20,000 cells per well. Cells were grown overnight at 37° C. in 5% CO2 and then washed once with 37° C. HEPES buffered saline (HBS: 150 mM NaCl, 20 mM HEPES, 1 mM CaCl2, 10 mM glucose, 5 mM KCl, 1 mM MgCl2; pH 7.4). Eighty microliters of 37° C. HBS was subsequently added to each well. Test solutions of GlyT2 inhibitors were prepared in HBS from DMSO stock solutions, and 5 μL of test solution was added to each test well. Total transport and non-specific background were determined by adding 5 μL HBS or 5 μL 2 M glycine, respectively, to the appropriate control wells. Plates were then left at room temperature for 5 min before the addition of 20 μL of 100 μM ^14C-glycine (NEN, NEC 048H) to each well for a final concentration of 20 μM. Plates were incubated for 2 h at 37° C. with 5% CO2. After 2 h the reaction mixtures were removed by aspiration, and the plates were washed once with ice-cold HBS. Plates were sealed with TopSeal (Packard, 6005185) and counted on a Packard TopCount® scintillation counter.
`O=C(c1cccc(CNCCNc2ccccc2Br)c1)N1CCCCC1` [Example 17, (3-{[2-(2-Bromo-phenylamino)-ethylamino]-methyl}-phenyl)-piperidin-1-yl-methanone] came in with an IC50 of 1 µM.
In turn, `O=C(c1cccc(CNCCNc2cccc(Br)c2)c1)N1CCCCC1` [Example 18, (3-{[2-(3-Bromo-phenylamino)-ethylamino]-methyl}-phenyl)-piperidin-1-yl-methanone] returned an IC50 of 3.1 µM.
Regarding `O=C(c1cccc(CNCCNc2ccccc2Cl)c1)N1CCCCC1` [Example 19, (3-{[2-(2-Chloro-phenylamino)-ethylamino]-methyl}-phenyl)-piperidin-1-yl-methanone], the IC50 came out at 1.2 µM.
The value for `O=C(c1cccc(CNCCNc2cccc(Cl)c2)c1)N1CCCCC1` [Example 20, (3-{[2-(3-Chloro-phenylamino)-ethylamino]-methyl}-phenyl)-piperidin-1-yl-methanone] was 3.1 µM.
As for `CC(C)c1ccccc1NCCNCc1cccc(C(=O)N2CCCCC2)c1` [Example 21, (3-{[2-(2-Isopropyl-phenylamino)-ethylamino]-methyl}-phenyl)-piperidin-1-yl-methanone], the figure is 2.5 µM; as for `COc1ccccc1-c1ccccc1NCCNCc1cccc(C(=O)N2CCCCC2)c1` [Example 22, (3-{[2-(2′-Methoxy-biphenyl-2-ylamino)-ethylamino]-methyl}-phenyl)-piperidin-1-yl-methanone], above 10 µM; as for `O=C(c1cccc(CNCCNc2ccccc2-c2ccsc2)c1)N1CCCCC1` [Example 23, Piperidin-1-yl-(3-{[2-(2-thiophen-3-yl-phenylamino)-ethylamino]-methyl}-phenyl)-methanone], 0.955 µM.
As to `CC(C)Oc1ccccc1OCCNCc1cccc(C(=O)N2CCCCC2)c1` [Example 24, (3-{[2-(2-Isopropoxy-phenoxy)-ethylamino]-methyl}-phenyl)-piperidin-1-yl-methanone], 0.4 µM corresponded to half-maximal inhibition (IC50).
The value for `CC(C)Oc1ccccc1OCCCNCc1cccc(C(=O)N2CCCCC2)c1` [Example 25, (3-{[3-(2-Isopropoxy-phenoxy)-propylamino]-methyl}-phenyl)-piperidin-1-yl-methanone] was 0.4 µM; that for `CC(C)Oc1cccc(OCCNCc2cccc(C(=O)N3CCCCC3)c2)c1` [Example 26, (3-{[2-(3-Isopropoxy-phenoxy)-ethylamino]-methyl}-phenyl)-piperidin-1-yl-methanone] was 7.5 µM; that for `CC(C)Oc1ccccc1NCCN(C)Cc1cccc(C(=O)N2CCCCC2)c1` [Example 27, [3-({[2-(2-Isopropoxy-phenylamino)-ethyl]-methyl-amino}-methyl)-phenyl]-piperidinyl-methanone] was 11 µM.
For `CC(C)Oc1ccccc1N(C)CCNCc1cccc(C(=O)N2CCCCC2)c1` [Example 28, [3-({2-[(2-Isopropoxy-phenyl)-methyl-amino]-ethylamino}-methyl)-phenyl]-piperidinyl-methanone], it took 3.5 µM to reach half-maximal inhibition (IC50).
For the molecule `CC(C)Oc1ccccc1N(C)CCN(C)Cc1cccc(C(=O)N2CCCCC2)c1` [Example 29, {3-[({2-[(2-Isopropoxy-phenyl)-methyl-amino]-ethyl}-methyl-amino)-methyl]-phenyl}-piperidin-1-yl-methanone], the 50% inhibitory concentration (IC50) was above 10 µM.
As for `CC(C)Oc1cccc(NCCN(C)Cc2cccc(C(=O)N3CCCCC3)c2)c1` [Example 30, [3-({[2-(3-Isopropoxy-phenylamino)-ethyl]-methyl-amino}-methyl)-phenyl]-piperidin-1-yl-methanone], the figure is 1 µM; as for `CC(C)Oc1cccc(N(C)CCN(C)Cc2cccc(C(=O)N3CCCCC3)c2)c1` [Example 31, {3-[({2-[(3-Isopropoxy-phenyl)-methyl-amino]-ethyl}-methyl-amino)-methyl]-phenyl}-piperidin-1-yl-methanone], 1.6 µM; as for `CC(C)Oc1ccccc1CCCNCc1cccc(C(=O)N2CCCCC2)c1` [Example 33, (3-{[3-(2-Isopropoxy-phenyl)-propylamino]-methyl}-phenyl)-piperidin-1-yl-methanone], 4 µM.
As for `CC(C)Oc1ccccc1NCCNCc1cc(C(=O)N2CCCCC2)cs1` [Example 34, (5-{[2-(2-Isopropoxy-phenylamino)-ethylamino]-methyl}-thiophen-3-yl)-piperidin-1-yl-Methanone], the figure is 3.1 µM; as for `Nc1ccccc1NCCNCc1cc(C(=O)N2CCCCC2)cs1` [Example 35, (5-{[2-(2-Amino-phenylamino)-ethylamino]-methyl}-thiophen-3-yl)-piperidin-1-yl-methanone], above 10 µM; as for `CC(C)Nc1ccccc1NCCNCc1cc(C(=O)N2CCCCC2)cs1` [Example 36, (5-{[2-(2-Isopropylamino-phenylamino)-ethylamino]-methyl}-thiophen-3-yl)-piperidinyl-methanone], 3.1 µM.
The value for `CC(C)Oc1ccccc1NCCNCc1cccc(C(=O)N2CCCC2)c1` [Example 38, (3-{[2-(2-Isopropoxy-phenylamino)-ethylamino]-methyl}-phenyl)-pyrrolidin-1-yl-methanone] was 3 µM; that for `CC(C)Oc1ccccc1NCCNCc1cccc(C(=O)N2CCCCCC2)c1` [Example 39, Azepan-1-yl-(3-{[2-(2-isopropoxy-phenylamino)-ethylamino]-methyl}-phenyl)methanone.] was 1.8 µM.
Regarding `CC(C)Oc1ccccc1NCCNCc1cccc(C(=O)N2CCC(O)CC2)c1` [Example 41, (4-Hydroxy-piperidin-1-yl)-(3-{[2-(2-isopropoxy-phenylamino)-ethylamino]-methyl}-phenyl)-methanone], the IC50 was above 10 µM.

For the origin of these results see US7915420B2, “Aryl piperidine amides” (Janssen Pharmaceutica NV, priority 2003, dated 2011).
